Patent publication US8741579B2, “Compounds and methods for the modulation of beta-1 integrin function to mediate tissue repair” (priority 2007, dated 2014)
Where a SMILES comes first, the peptide text is derived from it. The star is where a group is joined. Cbz = O=C(OCc1ccccc1)*; CH2F = FC*

Legend:
[1] = target: human beta 1 integrin (Integrin beta-1 precursor, Fibronectin receptor subunit beta, Integrin VLA-4 subunit beta, CD29 antigen) (human) (UniProt P05556); assay: cell-based or functional assay
Chain of UniProt P05556 (P05556 21-798 T112H/S215T): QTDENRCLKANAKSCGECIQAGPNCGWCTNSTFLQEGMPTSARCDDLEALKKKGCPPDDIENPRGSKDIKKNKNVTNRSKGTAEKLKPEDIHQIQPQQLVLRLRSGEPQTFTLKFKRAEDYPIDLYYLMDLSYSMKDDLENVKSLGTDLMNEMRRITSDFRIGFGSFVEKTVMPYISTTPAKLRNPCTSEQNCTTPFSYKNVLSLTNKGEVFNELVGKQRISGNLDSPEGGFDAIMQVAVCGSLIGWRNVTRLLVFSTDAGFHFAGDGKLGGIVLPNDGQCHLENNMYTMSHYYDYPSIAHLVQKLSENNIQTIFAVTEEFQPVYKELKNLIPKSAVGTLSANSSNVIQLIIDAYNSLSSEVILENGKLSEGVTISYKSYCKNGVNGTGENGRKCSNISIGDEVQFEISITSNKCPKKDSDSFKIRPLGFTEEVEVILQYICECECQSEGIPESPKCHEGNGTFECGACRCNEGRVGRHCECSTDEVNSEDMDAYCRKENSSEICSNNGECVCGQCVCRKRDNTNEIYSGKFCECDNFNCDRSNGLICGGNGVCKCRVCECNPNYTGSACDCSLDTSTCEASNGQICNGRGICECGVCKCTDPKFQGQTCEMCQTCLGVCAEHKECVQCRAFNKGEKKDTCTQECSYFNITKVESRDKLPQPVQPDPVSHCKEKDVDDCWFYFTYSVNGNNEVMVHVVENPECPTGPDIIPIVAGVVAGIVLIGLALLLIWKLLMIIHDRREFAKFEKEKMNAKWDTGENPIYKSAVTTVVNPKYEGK

[2] = test system: adult human lung fibroblasts (CCD-8Lu) overlayered with NCI-H441 cells; assay: F-actin aggregates (phalloidin staining) in human lung co-culture under stretch; type: cell-based; conditions: stretch up to 6 hours; JB1a 1 μg/ml; ZVAD-fmk
Description: (§1) Adult human lung fibroblasts (CCD-8Lu) were seeded onto collagen I coated BioFlex 6 well plates at 0.5×10^6/well. The following day, NCI-H441 were seeded on top of the fibroblasts at the same density. […] Cells were starved with media containing 0.1% FCS. The plates were subjected to stretching at 0-5%, 0-10% or 2-10% sinusoidal stretch at 1 Hz for 6 hours. Control plates on plastic or bioflex plates without stretch were also included. PPE was added at 0.06 or 0.3 U/ml alone or in combination with JB1a (1 μg/ml) and ZVAD-fmk at 10 or 20 μM. At the end of the 6 hour period, the media was aspirated and caspase 3 activity assayed using Caspase-Glo™ 3/7 (Promega) according to the manufacturers' instructions. Separate experiments were performed at up to 6 hours of stretching where the cells were fixed with 4% paraformaldehyde and stained using Alexa-fluor phalloidin and TO-PRO3 (Molecular Probes). Images were acquired using Zeiss Axioskope using a x63 water achroplan objective and analysed using LSM 5 Image software.

[3] = test system: adult human lung fibroblasts (CCD-8Lu) overlayered with NCI-H441 cells; assay: Caspase 3/7 activity (Caspase-Glo 3/7) in human lung co-culture under cyclic stretch; type: cell-based; conditions: cyclic stretch 6 hours; JB1a 1 μg/ml; ZVAD-fmk 10 or 20 μM
Description: as §1

| Compound | IL-1beta-stimulated IL-8 secretion by primary human chondrocytes, reduction [1] [%] | elastase-induced increase in F-actin aggregates [2] | elastase-induced caspase 3 and 7 activation [3] |
| --- | --- | --- | --- |
| JB1a monoclonal antibody (JB1A mouse anti-CD29 (Integrin beta-1 subunit) IgG monoclonal antibody, unconjugated, clone JB1a, Millipore, Catalogue number MAB-1965) | 50 |  |  |
| COC(=O)C[C@H](NC(=O)[C@H](C)NC(=O)[C@@H](NC(=O)OCc1ccccc1)C(C)C)C(=O)CF [ZVAD-fmk] (Cbz-Val-Ala-Asp(OMe)-CH2F) |  | inhibited | inhibited elastase-induced caspase activation |
